{"source": "patent US20240269206A1", "about": "“AMANITA […] EXTRACTS AND COMPOUNDS AND THEIR […] […] USE” (priority 2021, published 2024)", "key": {"[1]": {"system": "male CD [Crl:CD(SD)] rats", "assay": "Conditioned place preference (CPP) study, abuse liability assessment", "assay_type": "in vivo, rat", "details": "for Conditioned place preference score for CS+ (percentage of time in the 2 conditioning compartments), Mean / Conditioned place preference score for CS+, LSMean (least squares mean): 20 mg/kg oral gavage (positive control)", "description": "Purpose: A conditioned place preference (CPP) study was conducted in rats to evaluate the abuse potential of exemplary aqueous A. muscaria extract AME-1. The CPP study is a standard behavioral model used for studying the reward and aversive effects of a compound and is designed to determine the reinforcing properties of drugs of abuse using classical Pavlovian conditioning. Accordingly, the CPP paradigm provides for a rapid measurement of the positive reinforcing or aversive properties of a test sample, in this case, AME-1.\nMethods: Four treatment groups of 8 male CD® [Crl:CD®(SD)] rats were exposed to unique environmental cues associated with a conditioned stimuli (CS+) or saline (CS−) in a 3-chamber straight alleyway system. Following a habituation phase (Week −1) during which compartment preference was determined for each animal, the conditioning phase (Week 1 and Week 2) was conducted during which compartments 1 and 3 were paired with the test and control articles or saline. Saline (CS−) and test/control articles (CS+, at 800 and 1100 mg/kg of exemplary A. muscaria aqueous extract AME-1 or 20 mg/kg cocaine) were administered via oral gavage at a dose volume of 5 mL/kg. After two sets of conditioning trials during the conditioning phase, each rat was retested for free-choice side preference (Days 5 and 12). Each rat received eight stimulus environmental pairing sessions (e.g., four test article and four saline) and two CPP test sessions (T1, T2). The study design was as follows:\nThe following parameters and endpoints were evaluated in this study: mortality, clinical signs, body weights, and CPP testing. During CPP testing sessions, the following parameters were assessed: 1) Total time spent in the black and/or white (Compartment 1 and 3) compartments, which were used to calculate the “preference score,” and these values expressed as a percentage of time in the two conditioning compartments; 2) Total number of beam breaks in each conditioning compartment; and 3) Preference score expressed as a percentage of time in the 2 conditioning compartments. Only preference scores for the CS+ expressed as a percentage of time in the 2 conditioning compartments were reported. A CPP was determined when the test subject spent more time in the test sample-paired compartment versus the vehicle-paired compartment. Conversely, a conditioned place aversion (CPA) was determined when the test subject spent more time in the vehicle-paired compartment versus the sample-paired compartment. Therefore, possible outcomes included whether AME-1 causes a dependence, an aversive effect, or no effect. The total time spent in the nonpreferred compartment+total time spent in both conditioning compartments was expressed as a percentage, and used as a measure of “side preference.” Side preference infers a hedonic valence for the environmental cues of the compartment. Initial side preferences/biases (Habituated Score-H) were used to determine which of two compartments would be paired with the targeted interoceptive states. After two CS-UCS pairings, groups were retested for side preference (Test 1-1; Test 2-2). A significant change score from the initial habituation test scores reflected a conditioned place approach (* p<0.05)."}, "GABA receptor": {"system": "GABA receptor", "details": "cited from earlier work; for Mechanism of action at the GABA receptor: Brehm et al., Walker et al."}, "[2]": {"details": "stomach, liver and brain; cited from earlier work"}, "[3]": {"details": "after ingestion of Amanita mushrooms; cited from earlier work"}, "[4]": {"system": "levels of serotonin (5-hydroxytryptamine), noradrenaline and dopamine in the brain", "details": "male rats and mice, cited from earlier work"}, "[5]": {"details": "cited from earlier work"}}, "note": "Like-named read-outs stand apart in the source and are kept apart here."}
{"smiles": "COC(=O)[C@H]1[C@@H](OC(=O)c2ccccc2)C[C@@H]2CC[C@H]1N2C", "note": "[Cocaine]", "values": [{"measurement": "Conditioned place preference score for CS+ (percentage of time in the 2 conditioning compartments), Mean", "setting": "[1]; Habituation", "result": 39.593}, {"measurement": "Conditioned place preference score for CS+, LSMean (least squares mean)", "setting": "[1]; Habituation", "result": 39.162}, {"measurement": "Conditioned place preference score for CS+ (percentage of time in the 2 conditioning compartments), Mean", "setting": "[1]; Overall", "result": 49.665}, {"measurement": "Conditioned place preference score for CS+, LSMean (least squares mean)", "setting": "[1]; Overall, different from Groups 1 and 3, p < 0.05", "result": "49.639^a, f"}, {"measurement": "Conditioned place preference score for CS+ (percentage of time in the 2 conditioning compartments), Mean", "setting": "[1]; Test 1", "result": 61.194}, {"measurement": "Conditioned place preference score for CS+, LSMean (least squares mean)", "setting": "[1]; Test 1", "result": 61.877}, {"measurement": "Conditioned place preference score for CS+ (percentage of time in the 2 conditioning compartments), Mean", "setting": "[1]; Test 2", "result": 48.208}, {"measurement": "Conditioned place preference score for CS+, LSMean (least squares mean)", "setting": "[1]; Test 2", "result": 47.822}, {"measurement": "Outcome of CPP testing: conditioned place preference", "setting": "[1]; 20 mg/kg oral gavage, positive control", "result": "did produce a CPP"}]}
{"smiles": "N[C@H](C(=O)O)c1cc(O)no1", "note": "[ibotenic acid, (S)-2-Amino-2-(3-hydroxyisoxazol-5-yl) acetic acid]", "values": [{"measurement": "Mechanism of action at the GABA receptor", "setting": "GABA receptor", "result": "activation of the GABA receptor"}, {"measurement": "Metabolic fate", "setting": "[2]", "result": "metabolized by decarboxylation in the stomach, liver, and brain to equal amounts of muscimol"}, {"measurement": "Time of detection in urine after ingestion", "setting": "[3]", "result": "detected within an hour after ingestion"}, {"measurement": "Effect on brain levels of serotonin, noradrenaline and dopamine", "setting": "[4]; 16 mg/kg intraperitoneally", "result": "affect the levels of serotonin (5-hydroxytryptamine), noradrenaline and dopamine in the brain"}]}
{"smiles": "NCc1cc(=O)[nH]o1", "note": "[muscimol, 5-(Aminomethyl)-1,2-oxazol-3(2H)-one]", "values": [{"measurement": "Mechanism of action at the GABA receptor", "setting": "GABA receptor", "result": "activation of the GABA receptor"}, {"measurement": "GABA agonist affinity and efficacy", "setting": "GABA receptor; Worms et al.", "result": "GABA agonist of high affinity but of relatively low efficacy"}, {"measurement": "Amount of the dose injected that crossed to the brain", "setting": "[5]; IV 8 μmol/kg 3H-muscimol, 150 g male Sprague Dawley rat", "result": "approximately 0.02%"}, {"measurement": "Muscimol amount in the brain", "setting": "[5]; IV 8 μmol/kg 3H-muscimol, male Sprague Dawley rat", "result": "approximately 200 pmol/g tissue"}, {"measurement": "Distribution at various brain regions", "setting": "[5]; IV 8 μmol/kg, male Sprague Dawley rat", "result": "highest muscimol concentration being in the substantia nigra, the colliculi and the hypothalamus"}, {"measurement": "Time until blood concentration was below limits of detection", "setting": "[5]; after intravenous injection, rat", "result": "≤ 180", "unit": "min"}, {"measurement": "Distribution in the corneum stratum compared to the hypothalamus, hippocampus and cortex", "setting": "[5]; intracerebroventricular injection 1200 nmol/kg, rat", "result": "approximately 2 times"}, {"measurement": "Tolerability (reports of adverse effects or toxicity)", "setting": "[5]; intravenous injection 8 μmol/kg, rat", "result": "well-tolerated"}, {"measurement": "Time of detection in urine after ingestion", "setting": "[3]", "result": "detected within an hour after ingestion"}, {"measurement": "Effect on brain levels of serotonin, noradrenaline and dopamine", "setting": "[4]; 3 mg/kg intraperitoneally", "result": "affect the levels of serotonin (5-hydroxytryptamine), noradrenaline and dopamine in the brain"}]}
